Measurements as given in ChEMBL document CHEMBL1127094, “Competitive NMDA receptor antagonists; (R)-4-Oxo-5-phosphononorvaline structure-activity relationships” (Bioorg Med Chem Lett, 1993).

These compounds were tested against Glutamate NMDA receptor (assay: Tested for the binding potency against NMDA site of the glutamate receptor complex using rat brain cortical membranes in a competitive binding assay with [3H]CPP as radioligand).
Type: cell membranes, Membrane

Row | Structure (SMILES) | IC50
1 | N[C@H](C/C(CP(=O)(O)O)=N/OCc1ccccc1)C(=O)O | 500 nM
2 | CC(C(=O)CP(=O)(O)O)C(N)C(=O)O (centres undefined) | 7000 nM
3 | N[C@H](CC(=O)CP(=O)(O)O)C(=O)O | 110 nM
4 | CC(N)(CC(=O)CP(=O)(O)O)C(=O)O (centres undefined) | 20000 nM
5 | N[C@H](C/C(CP(=O)(O)O)=N/O)C(=O)O | 200 nM
6 | CC(C(=O)C[C@@H](N)C(=O)O)P(=O)(O)O (some centres undefined) | 1800 nM
7 | COP(=O)(O)CC(=O)CC(N)C(=O)O (centres undefined) | 5000 nM
8 | COC(=O)[C@H](N)CC(=O)CP(=O)(O)O | 1700 nM
9 | CO/N=C(/C[C@@H](N)C(=O)O)CP(=O)(O)O | 600 nM
